# Assay results reported in patent publication US20210177952A1, “METHOD AND COMPOSITION FOR STIMULATING IMMUNE RESPONSE” (BeyondSpring Pharmaceuticals, Inc., priority 2018, published 2021).
# Test system: ovalbumin IgG1
# Assay: Serum anti-ovalbumin IgG1 ELISA after OVA/CFA immunization of mice
# Assay type: in vivo, Mouse, C57BL6
# Details: for anti-OVA IgG1 concentrations in serum: 7.5 and 10 mg/kg IP BID for a single day, 3, 6, 14 or 28 days after immunization, Day 30 and Day 62 samples
# Description: A study was performed to evaluate the effect of plinabulin on boosting B-cell response to immunization. Samples were prepared using an emulsion of complete Freund's adjuvant (CFA) with the foreign protein ovalbumin (OVA), each with varying concentrations of plinabulin (plinabulin doses range from 0.01 mg to 30 mg), and the control was prepared with no plinabulin added. Normal healthy mice were immunized by subcutaneous injection of the CFA+OVA emulsion +/−plinabulin, and/or intraperitoneal injection of ALUM+OVA adjuvant +/−plinabulin (n=5 mice per plinabulin dose group). At different time points as discussed below in this Example, the animals were bled to collect serum for evaluating the concentration of IgG that binds OVA in the serum.
# DOSE PREPARATION OF OVALBUMIN EMULSIONS IN COMPLETE FREUND'S ADJUVANT: EndoFit™ Ovalbumin Kit (InvivoGen, USA), containing 10 mg powder in one glass vial and 10 mL of sterile endotoxin-free physiological water in one glass vial, and CFA 10 mL in one glass vial were received in good condition and stored at 2-8° C. until Day 1. The sterile endotoxin-free saline solution was allowed to reach room temperature before use. Inside a BSL2 cabinet, 5 mL sterile water was added into the vial containing 10 mg of OVA and gently agitated to obtain a homogenous 2 mg/mL OVA solution. To 2.5 mL of CFA, 2.5 mL of OVA solution was added; and the mixture was emulsified by vigorously mixing into two connected 10 mL locking syringes to prepare a 1 mg/mL OVA/CFA emulsion. The emulsification was kept chilled by placing the apparatus into crushed ice for 5 minutes, then mixing and cooling was repeated an additional two times. Stability of the emulsion was tested by adding a drop into water to verify that the emulsion would not dissipate. The emulsion was transferred into five 1 mL syringes for injection and kept cool on crushed ice until immunization. The emulsification processes were repeated with an additional 2.5 mL of OVA solution and 2.5 mL of CFA during immunization of animals to use within 4 hours of preparation.
# DOSE PREPARATION OF TEST ARTICLES: Plinabulin solution (Plin-A) at a 0.75 mg/mL was prepared on each day of dosing. Plinabulin powder (3 mg) was weighed into a separate light protected amber vial at room temperature. Using a micropipette, 284 μL of Tween-80 was added to the amber vial and vortex for 1 minute. 1,020 μL of propylene glycol was added to the amber vial and vortexed for 15 minutes, then sonicated in a water bath for 30 minutes. Finally, 2,696 μL of 5% dextrose in water was added to the solution and vortexed for 3 minutes to achieve 4 mL of a 0.75 mg/mL plinabulin solution. Plinabulin solution (Plin-B) at a 1.0 mg/mL was prepared on each day of dosing. Plinabulin powder (3 mg) was weighed into a separate light protected amber vial at room temperature. Using a micropipette, 213 μL of Tween-80 was added to the amber vial and vortex for 1 minute. 765 μL of propylene glycol was added to the amber vial and vortex for 15 minutes, then sonicated in a water bath for 30 minutes. Finally, 2,022 μL of 5% dextrose in water was added to the solution and vortexed for 3 minutes to achieve 3 mL of a 1.0 mg/mL plinabulin solution.
# ANTI-OVALBUMIN ASSAY: Mouse anti-OVA IgG1 ELISA kits (Cayman Chemical, USA) were purchased to perform the assay. Serum samples from Day 30 were assayed in 1-to-2,000, 1-to-6,000 and 1-to-20,000 dilution. Serum samples from Day 62 were assayed in 1-to-2,000 and 1-to-20,000 dilution. […]
smiles,measurement,setting,value
"CC(C)(C)c1[nH]cnc1/C=c1\[nH]c(=O)/c(=C/c2ccccc2)[nH]c1=O [Plinabulin, (3Z,6Z)-3-Benzylidene-6-{[5-(2-methyl-2-propanyl)-1H-imidazol-4-yl]methylene}-2,5-piperazinedione]",anti-OVA IgG1 concentrations in serum,,inhibitory effects on anti-OVA in 4 out of 5 subgroups
same,anti-OVA IgG1 concentrations in serum,listed as plinabulin,"significantly reduced, or tended to be reduced"
same,concentration of anti-OVA IgG in serum versus immunization without plinabulin,mice immunized with CFA+OVA or ALUM+OVA +/- plinabulin,higher concentrations of anti-OVA IgG
same,OVA IgG1 production in serum on Day 62,"subgroup 1: 7.5 mg/kg IP BID, 1 hour after immunization, Day 62",significantly increased OVA IgG1 production
same,production of OVA IgG1 in serum on Day 30,"subgroup 1: plinabulin IP BID 3 hours apart, 1 hour after OVA/CFA immunization, Day 30",dose-dependently increased the production of OVA IgG1 on Day 30 without reaching statistical significance
